We go through four compounds from US20220331408A1, “TREATMENT OF GLYCOGEN STORAGE DISEASE (GSD)” (GENETHON, priority 2019, published 2022).

Data set [1] deals with GAA (Homo sapiens, UniProt P10253). Description: GAA activity in tissues (4-MU substrate cleavage) of GAA KO mice injected with AAV-hGAA plus chaperones. The class given is in vivo. The settings on record: for GAA activity (uptake) in tissues: tissues overall (FIG. 7). The procedure:
(§1) Three to four-month-old GAA deficient male mice were divided into six groups and one control group was composed by wild-type littermates. Each group was composed by eight mice in maximum two cages, to facilitate the administration of the drugs dissolved in drinking water. Starting from day 0, GAA deficient (KO) mice (mouse strain B6; 129-Gaa^tm1Rabn/J) were injected with AAV-hGAA at 1×10^11 vg/kg via tail vein injection in combination with the different pharmacological chaperones (PC) dissolved in the drinking water. In parallel, untreated GAA wild-type mice and two groups of GAA deficient mice injected with the AAV-hGAA vector or PBS were used as controls. PC molecules were orally administered to the mice, using a “3 days on/4 days off” regimen, consisting in three consecutive days of treatment followed by four consecutive days with drinking water only, as described in FIG. 4. Mice receive 100 mg/kg/die of duvoglustat (DNJ, AX61Q1, Interchim, San Diego, Calif.), 100 mg/kg/die of duvoglustat combined with 25 mg/kg/die of ambroxol hydrochloride (DNJ-ABX), 25 mg/kg/die of ambroxol hydrochloride (ABX, A9797, Sigma, Saint Louis, Mo.), 4200 mg/kg/die of N-acetyl-cysteine (NAC, A7250, Sigma, Saint Louis, Mo.) dissolved in drinking water (FIG. 4) or normal drinking water.
Circulating hGAA activity and levels were monitored over a period of two months. Mice were sacrificed and different organs and muscles were collected (heart, diaphragm, quadriceps, and triceps) to measure the uptake of GAA in tissues and the glycogen clearance.
At the end of the study (2 months post-injection), animals were sacrificed by CO2 inhalation. Heart, diaphragm, quadriceps, and triceps were collected and snap-frozen in liquid nitrogen for biochemical analysis. Frozen samples are stored at −80° C. until processing.
GAA activity was assessed in plasma and tissue by measurement of 4-methyl-umbelliferyl-α-d-glucoside (4-MU, Sigma, St Louis, Mo.) cleavage at pH 4.3. To this end, mouse tissues collected at sacrifice was homogenized in PBS. Insoluble proteins were removed by centrifugation. The protein content of the resultant lysates was quantified via the BCA Protein Assay (Thermo Fisher Scientific, Waltham, Mass.). Plasma and tissues samples were diluted in water and 10 μL of each sample were incubated with 20 μL of reconstituted substrate for 1 hr at 37° C. After stopping the reaction, the released fluorescence was measured with EN-SPIRE® fluorimeter (Perkin Elmer, Waltham, Mass.). GAA activity was normalized against total protein content or plasma volume.

The target in data set [2] is T1, human GAA (hGAA) (Homo sapiens, UniProt P10253). Description: Mature lysosomal 70 KDa hGAA in tissues (uptake) by Western blot, wild-type mice injected with AAV-GAA plus chaperones. Further details: expressed in transfected cells. Particulars: for GAA uptake in tissues: tissues overall (FIG. 3). The format is in vivo. The procedure: Six-eight-week-old C57Bl/6 male mice were divided into 9 groups of five mice. 5×10^11 vg/kg of AAV8-sp7-Δ8-co1GAA vectors were administered at day 0 intravenously in awake, restrained animals via tail vein injection. Two months after the AAV treatment, 7 pharmacological chaperone molecules or combination of them were orally administered to the mice using a “3 on/4 off” regimen (three consecutive days of treatment followed by four consecutive days with drinking water only) for four weeks. At the end of this four-week period, all mice were sacrificed and different organs and muscles were collected (liver, heart, brain, spinal cord, diaphragm, quadriceps, and triceps). C57Bl/6 mice were injected either with PBS (CTRL) or with 5×10^11 vg/kg of the AAV8 vector expressing secretable therapeutic hGAA polypeptide (AAV-GAA).
Two months after vector injection, mice were treated for four weeks with 100 mg/kg/die of duvoglustat (DNJ, AX61Q1, Interchim, San Diego, Calif.), 100 mg/kg/die of duvoglustat combined with 25 mg/kg/die of ambroxol (DNJ-ABX), 25 mg/kg/die of ambroxol hydrochloride (ABX, A9797, Sigma, Saint Louis, Mo.), 2 mg/kg/die of voglibose (VOGLIBOSE, S4101, Selleckchem, Houston, Tex.), 20 mg/kg/die of acarbose (ACARBOSE, S1271, Selleckchem, Houston, Tex.), 2 mg/kg/die of miglitol (MIGLITOL, S2589, Selleckchem, Houston, Tex.) or 4200 mg/kg/die of N-acetyl-cysteine (NAC, A7250, Sigma, Saint Louis, Mo.) dissolved in drinking water (FIG. 1). One group received normal drinking water (WATER).
Three months after vector injection, mice were sacrificed and the levels of human GAA (hGAA) in blood and tissues were analyzed by Western blot.
At the end of the study (3 months post-injection), animals were sacrificed by CO2 inhalation. Liver, heart, brain, spinal cord, diaphragm, quadriceps, and triceps were collected and snap-frozen in liquid nitrogen for biochemical analysis. Frozen samples were stored at −80° C. until processing.
Mouse tissues were collected at sacrifice and homogenized in PBS. Protein concentration was determined using the BCA Protein Assay (Thermo Fisher Scientific, Waltham, Mass.). Plasma and tissues samples were diluted 1:20 in water (except for brain, where samples were diluted 1:200). SDS-page electrophoresis was performed in a 4-12% gradient polyacrylamide gel. After transfer, the membrane was blocked with Odyssey buffer (Li-Cor Biosciences, Lincoln, Nebr.), incubated with an anti-human GAA antibody (rabbit monoclonal antibody, Abcam, Cambridge, UK) and an anti-GAPDH antibody (rabbit polyclonal antibodies, PA1-988, Life Technologies, Carlsbad, Calif.). The membrane was washed and incubated with the appropriate secondary antibody (Li-Cor Biosciences, Lincoln, Nebr.), and visualized by Odyssey imaging system (925-32213, Li-Cor Biosciences, Lincoln, Nebr.). To measure the uptake of GAA in tissues, the 70 KDa band (mature form), visualized by the anti-GAA antibody was quantified and normalized to the levels of expression of GAPDH used as loading control.
Background: A western blot detects proteins with antibodies after separation by electrophoresis.

Data set [3] concerns the target T1, human GAA (hGAA). Description: Circulating hGAA levels by Western blot in GAA KO mice injected with AAV-hGAA plus chaperones. The format is in vivo. Particulars: AAV-hGAA 1×10^11 vg/kg, two months after vector injection (FIG. 5). The procedure:
as §1
Circulating hGAA activity and levels were monitored over a period of two months. […]

Data set [4] deals with T1, human GAA (hGAA). Description: Circulating hGAA levels by Western blot in wild-type mice injected with AAV-GAA and given chaperones in drinking water. The format is in vivo. Particulars: wild-type C57Bl/6 mice, AAV-GAA 5×10^11 vg/kg, three months after vector injection, vs AAV-GAA mice on normal water (FIG. 2). The procedure: Six-eight-week-old C57Bl/6 male mice were divided into 9 groups of five mice. 5×10^11 vg/kg of AAV8-sp7-Δ8-co1GAA vectors were administered at day 0 intravenously in awake, restrained animals via tail vein injection. Two months after the AAV treatment, 7 pharmacological chaperone molecules or combination of them were orally administered to the mice using a “3 on/4 off” regimen (three consecutive days of treatment followed by four consecutive days with drinking water only) for four weeks. At the end of this four-week period, all mice were sacrificed and different organs and muscles were collected (liver, heart, brain, spinal cord, diaphragm, quadriceps, and triceps). C57Bl/6 mice were injected either with PBS (CTRL) or with 5×10^11 vg/kg of the AAV8 vector expressing secretable therapeutic hGAA polypeptide (AAV-GAA). […]
Three months after vector injection, mice were sacrificed and the levels of human GAA (hGAA) in blood and tissues were analyzed by Western blot. […]
Mouse tissues were collected at sacrifice and homogenized in PBS. Protein concentration was determined using the BCA Protein Assay (Thermo Fisher Scientific, Waltham, Mass.). […] To measure the uptake of GAA in tissues, the 70 KDa band (mature form), visualized by the anti-GAA antibody was quantified and normalized to the levels of expression of GAPDH used as loading control.

For data set [5] the following is noted: general statement, no test described; cited from earlier work.
For data set [6], the system named is GAA. Particulars: Pompe cells model expressing mutant forms of GAA, reference [9]; cited from earlier work.

As for `OC[C@H]1NC[C@H](O)[C@@H](O)[C@@H]1O` [DNJ, 1-deoxynojirimycin], the “GAA activity in heart” value at GAA [1] (two months (FIG. 7A), significance only with both DNJ and ABX) is listed as “increased enzyme activity”. Besides, at GAA [1] (two months (FIG. 7B), significance only with both DNJ and ABX), the “GAA activity in diaphragm” value is “increased enzyme activity”. Besides, the “GAA activity in triceps” value on GAA [1] (two months (FIG. 7C), significance only with both DNJ and ABX) was “increased enzyme activity”. The “GAA activity in quadriceps” value on GAA [1] (two months (FIG. 7D), significance only with both DNJ and ABX) is given as “increased enzyme activity”. The “mature lysosomal form of hGAA in triceps” value on human GAA (hGAA) [2] (Western blot (FIG. 3B), significance reached in triceps only for DNJ group) is given as “increased levels”. At human GAA (hGAA) [2] (Western blot (FIG. 3F)), the “mature lysosomal form of hGAA in spinal cord” value is on record as “increased levels”. For the same compound, the “mature lysosomal form of hGAA in diaphragm” value at human GAA (hGAA) [2] (Western blot band density normalized to GAPDH (FIG. 3C)) is given as “increased levels”. Moreover, on human GAA (hGAA) [2], the “GAA uptake in tissues” value is “increase”. Further, the “levels of circulating hGAA” value on human GAA (hGAA) [3] and on human GAA (hGAA) [4] was “significant increase” each time.

With `CC(=O)N[C@@H](CS)C(=O)O` [NAC, N-acetylcysteine], the “GAA activity (uptake) in tissues” value on GAA [1] was “No significant differences”. Further, the “GAA uptake in tissues” value on human GAA (hGAA) [2] is reported as “increase”. Also, the “levels of circulating hGAA” value at human GAA (hGAA) [4] was “significant increase”.

Consider “recombinant hGAA (ERT): recombinant GAA polypeptide alglucosidase alfa, marketed by Genzyme as Lumizyme or Myozyme”, for which the half-life entry in data set [5] is listed as “relatively short”.

Consider `Nc1c(Br)cc(Br)cc1CN[C@H]1CC[C@H](O)CC1` [ABX, ambroxol], for which, on GAA [1], the “GAA activity (uptake) in tissues” value was “No significant differences”. In addition, the “GAA uptake in tissues” value at human GAA (hGAA) [2] is given as “increase”. Moreover, in the data set with GAA [6], the “tissue uptake of GAA, especially in a tissue of the nervous system” value is reported as “did not increase”.
